Entries after “also recorded” stand apart in the source; their conditions may differ.
How the values were obtained:
CD4 T cells = assay: T-cell proliferation and IFNγ production in mixed lymphocyte reaction (MLR); format: cell-based
Method: Various binding compounds in accordance with embodiments of the invention were assessed for their ability to inhibit CD38 hydrolase activity without activating a mixed lymphocyte reaction (MLR). MLR occurs when MHC mismatched immune cells interact, triggering an immune response by T cell hyperproliferation and exacerbated cytokine release. […] The binding compounds were formulated at a concentration of 0.97 mg/mL in 20 mM Citrate, 100 mM NaCl, pH 6.2. Test substance was stored frozen at −80° C. until the day of use.
Analyses were performed to assess CD4 T cell proliferation and IFNγ production. The results are depicted in FIG. 20. […] The percentage of CD4 T cell proliferation is also shown in Panel C for a variety of other binding compounds.

[1] = test system: CD38 negative cell lines (293-Freestyle, HL-60, K562, CHO); assay: Off target cell binding by flow cytometry (Example 10); settings: K562 and HL-60 cells, FIG. 23
Method: On target and off target cell binding of a bispecific, bivalent three chain binding compound as depicted in FIG. 11, Panel D, was assessed. The binding compound was formulated at a concentration of 0.97 mg/mL in 20 mM Citrate, 100 mM NaCl, pH 6.2. Test substance was stored frozen at −80° C. until the day of use. Binding to CD38 positive and CD38 negative cell lines was assessed using flow cytometry. The CD38 positive cell lines used were Daudi, Ramos, and a CHO cell line transfected to stably express CD38. The CD38 negative cell lines used were 293-Freestyle, HL-60, K562, and CHO.
The average MFI of unstained wells was set as the background signal. To calculate fold over background of each experimental sample, the experimental sample MFI was divided by the average background MFI.

Daudi cells [2] = assay: Direct apoptosis / direct cytotoxicity of Daudi cells; format: cell-based
Method: (§1) Induction of direct apoptosis was assessed by Annexin-V and 7-AAD staining using flow cytometry. Annexin-V is commonly used to detect apoptotic cells by its ability to bind to phosphatidylserine, a marker of apoptosis when it is present on the outer leaflet of the plasma membrane. 7-AAD binds to double stranded DNA that is taken up by dying or dead cells with compromised membranes. The CD38 positive cell lines used in this study were Daudi and Ramos cells.
(§2) A quad gate was used to distinguish between early apoptotic (Annexin-V+, 7-AAD−), late apoptotic (Annexin-V+, 7-AAD+), and viable cells (Annexin-V−, 7-AAD−). Concentration of binding compound was plotted against percent viability in Graphpad Prism 8. The resulting plot was fitted to a non-linear regression to determine EC50.

Ramos cells [3] = assay: Direct apoptosis of Ramos cells; format: cell-based; settings: Annexin-V and 7-AAD staining, flow cytometry, FIG. 24
Method: as §1, §2

Daudi cells [4] = assay: NAD+ assay in Daudi cells; format: cell-based; settings: presence of NMN compared to absence of NMN, FIG. 19
Method: (§3) Studies were performed to assess whether blocking the ecto-NMNase activity of CD38 with the subject binding compounds causes an increase in the NMN-mediated increase in NAD+ within the CD38 expressing B cell lines Ramos and Daudi. The assay is based on the enzymatic cycling reaction in which NAD+ is reduced to NADH. NAD+ reacts with a colorimetric probe that produces a colored product. The intensity of the color is proportional to the NAD+ and NADH within a sample. Oxidized form is selectively destroyed by heating in basic solution, while reduced form is not stable in acidic solution.
(§4) Daudi or Ramos cells (2×10^5) were treated with antibody at a 5 nM concentration for 14 h. NAD+ was measured using an NAD+/NADH cycling assay kit (Cell Biolabs #MET-5014). Briefly, cell lysates were prepared in extraction buffer by homogenization, centrifugation at 4° C. at 14,000 rpm for 5 minutes, and deproteination through a 10 kDa spin filter. […] After 3 h, color development was read at 450 nm.
(§5) Daudi or Ramos cells (2×10^5) were treated with antibody at a 5 nM concentration in the presence or absence of 400 nM NMN for 14 h. NAD+ was measured using the NAD+/NADH cycling assay kit (Cell Biolabs #MET-5014). […] After 3 h, color development was read at 450 nm.

Ramos cells [5] = assay: NAD+ assay in Ramos cells; format: cell-based; settings: presence of NMN compared to absence of NMN, FIG. 19
Method: as §3, §4, §5

[6] = test system: sirtuin activity in CD38 positive Ramos cells; assay: Sirtuin activity assay (SIRT-GLO) in CD38 positive Ramos cells; format: cell-based; settings: 24 h
Source text: To quantify sirtuin activity, Promega's one-step SIRT-GLO™ assay was used. The reagent formulation contains an acetylated lysine attached to aminoluciferin, along with a peptide sequence derived from p53. Upon deacetylation of the lysine by a sirtuin, the deacetylated peptide becomes a substrate for the developer reagent present in the reaction mixture. This yields free aminoluciferin that reacts with luciferase to give a luminescent signal that is stable and quantifiable.
CD38 positive Ramos cells were treated with a bispecific, bivalent three chain binding compound as depicted in FIG. 11, Panel D, or isotype control, in a 96 well plate (2×10^5 cells/well). After 24 h, the plate was centrifuged at 500 g for 5 minutes, and the cells were washed with 1×PBS followed by centrifugation. The cell pellet was resuspended in 50 μL of M-PER Mammalian Protein extraction reagent on ice. The cells were transferred to 1.5 mL tubes and homogenized for 30 seconds. The lysate was centrifuged at 14,000 rpm for 5 minutes at 4° C. The supernatant was incubated with 1:30 of anti-SIRT1 antibody (Abcam #32441) for 4 h on a rotator at 4° C. Protein A slurry (25 μL per 50 μL of lysate) was added and further incubated for 2 h at room temperature Immunoprecipitation (IP) buffer (Pierce #28379) was added (500 μL per tube) followed by centrifugation at 2500 g for 2 minutes. The wash step with IP buffer was repeated and 50 μL of IgG elution buffer (Pierce #21004) was added. After 5 minutes of incubation at room temperature, the eluate was centrifuged at 2500 g for 2 minutes. The supernatant was immediately neutralized with 1 M Tris (pH 9), 10 μL per 100 μL eluate. The eluate was used in the SIRT GLO™ assay (Promega #G6450) at a 1:1 ratio with the SIRT GLO™ reagent, per the manufacturer's instructions.
CD38 positive Ramos cells were treated with a bispecific, bivalent three chain binding compound (depicted in FIG. 11, Panel D) in combination with nicotinamide mononucleotide (NMN) at a concentration of 400 nM, or isotype control, in a 96 well plate (2×10^5 cells/well). After 24 h, the plate was centrifuged at 500 g for 5 minutes, and the cells were washed with 1×PBS followed by centrifugation. The cell pellet was resuspended in 50 μL of M-PER Mammalian Protein extraction reagent on ice. The cells were transferred to 1.5 mL tubes and homogenized for 30 seconds. The lysate was centrifuged at 14,000 rpm for 5 minutes at 4° C. The supernatant was incubated with 1:30 of anti-SIRT1 antibody (Abcam #32441) for 4 h on a rotator at 4° C. Protein A slurry (25 μL per 50 μL of lysate) was added and further incubated for 2 h at room temperature Immunoprecipitation (IP) buffer (Pierce #28379) was added (500 μL per tube) followed by centrifugation at 2500 g for 2 minutes. […]

[7] = test system: Xeno-GvHD in NOD scid gamma (NSG) mice; assay: Xeno-GvHD model, human PBMCs in NSG mice; format: in vivo
Method: Xeno-GvHD was induced using 1.5 grays of radiation to facilitate colonization of human PBMCs in NOD scid gamma (NSG) mice. […] Survival was monitored until day 50. GvHD clinical score was determined mainly based on weight loss, posture, activity and fur texture. […] In contrast, the animals treated with PBMCs+PBS or PBMCs+mCD38 lost body weight quickly and were sacrificed before day 25 because of more than 20% weight loss. The survival, body weight, and clinical score data are shown in FIGS. 30, 31 and 32, respectively.

[8] = biological target: T1, human CD38 expressed on CHO cells (Homo sapiens, UniProt P28907); assay: Cell-based CD38 hydrolase activity, UniAb mixtures, bivalent and tetravalent formats (FIGS. 7, 8, 12, 16); settings: tetravalent UniAbs with human IgG4 Fc region, FIG. 16; read-out: IC50, inhibition of hydrolase activity of human CD38 expressed on CHO cells
T1 construct: expressed in transfected cells; host or cells: CHO cells stably expressing human CD38
Method: After incubation, ε-NAD^+ (BioLog Cat. No. N010) was added to a final concentration of 150 μM. Production of a fluorescent product was measured at 1 hour (ex 300 nm/em 410 nm) using a Spectramax i3x plate reader (Molecular Devices). Hydrolase enzyme inhibition was assessed by comparing signal from UniAb™-treated wells to the percent of total enzymatic activity observed when CD38 protein was treated with an isotype control antibody (max).

Daratumumab: antibody specific for human CD38, approved in 2015 for Multiple Myeloma
percentage of CD4 T cell proliferation in MLR (in words) (CD4 T cells; FIG. 20, Panel A): did result in an increase | IFNγ production in MLR (in words) (CD4 T cells; compared to IgG4 istp control, FIG. 20, Panel B): caused an increase

TNB-738: bispecific, bivalent three chain anti-human CD38 molecule, FIG. 11 Panel D, comprising F11A and F12A VH sequences
off target cell binding (in words) [1]: does not bind | direct apoptosis of Daudi cells (in words) (Daudi cells [2]; Annexin-V and 7-AAD staining, flow cytometry, FIG. 24): did not cause direct apoptosis | direct apoptosis of Ramos cells (in words) (Ramos cells [3]): did not cause direct apoptosis | intracellular NAD+ levels (in words) (Daudi cells [4]): remarkably increased the NAD+ levels | intracellular NAD+ levels (in words) (Ramos cells [5]): remarkably increased the NAD+ levels | sirtuin activity, luminescence (in words) ([6]; NMN 5 nM, 50 nM or 500 nM, FIG. 29): further increased in a dose-dependent manner by the presence of increasing concentrations of NMN | sirtuin activity, luminescence (in words) ([6]; NMN 400 nM, FIG. 28): further increased by the presence of NMN | sirtuin activity, luminescence (in words) ([6]; no NMN, FIG. 26): dose-dependent increase in sirtuin activity | prevention of GvHD (in words) ([7]; clinical score based on weight loss, posture, activity and fur texture): prevention of GvHD; also recorded: able to successfully prevent GvHD | survival ([7]; day 50 after PBMC injection, treatments twice weekly until day 18): 100%

Isatuximab: antibody against CD38 in clinical trials for Multiple Myeloma; VH SEQ ID NO: 30, VL SEQ ID NO: 31 [reference compound]
direct cytotoxicity of Daudi cells (in words) (Daudi cells [2]; FIG. 10): potently kill Daudi cells | direct apoptosis of Daudi cells (in words) (Daudi cells [2]; in 24 hours, stated with the NAD+ study): causes direct apoptosis | intracellular NAD+ levels (in words) (Daudi cells [4]): not Daudi | intracellular NAD+ levels (in words) (Ramos cells [5]): subtle difference in NAD+ increase

NC(=O)c1ccc[n+]([C@@H]2O[C@H](COP(=O)([O-])O)[C@@H](O)[C@H]2O)c1 [NMN, nicotinamide mononucleotide, reference compound]
sirtuin activity, luminescence (in words) ([6]; NMN 400 nM, FIG. 28): did not result in an increase in sirtuin activity

B1: CD38F12A_2GS_CD38F11A: tetravalent bispecific UniAb, FIG. 11 Panel B format, distal VH CD38F12A, GS linker, proximal VH CD38F11A, human IgG4 Fc region (antibody)
heavy: GVQLVESGGGLVQPGGSLRLSCTASGFTFSSSWMSWVRQAPGKGLEWVANIKQDGSEKDYVDSAKGRFTISRDNAKNSLYLQMNNLRAEDTAVYYCARDRRGPFFHIWGQGTLVTVSSGGGGSQVQLVESGGGVVQPGRSLRLSCAASGFTFSSYGMHWVRQAPGKEREWVAVISDDGSNKYYADSVKGRFTISRDNSKNTLYLQMNSLRVEDTAVYYCAKDRGTMRVVVYDTLDIWGQGTLVTVSS
modifications: left off: a dimerising Fc or GST
IC50 [8]: 4.5 nM

Source: US20220372162A1, “PCT/US2020/066088” (TeneoFour, Inc., priority 2019, published 2022)
